Assay results published in patent US20230113398A1, “INEXPENSIVE METAL-FREE ORGANIC REDOX FLOW BATTERY (ORBAT) FOR GRID-SCALE STORAGE” (UNIVERSITY OF SOUTHERN CALIFORNIA, priority 2013, published 2023).
Converted amounts (≈) assume the structure as drawn. “And” between values parts separate entries of the source, which are not always exact repeats. Equal values may be shown once. Read-outs that look alike come from different tables or passages of the source.

Columns and labels:
[1] = Properties of some common quinones (literature data, Conant and Fieser); assay type: physicochemical
Excerpt: In a variation as set forth above, the flow battery utilizes a first quinone and a second quinone. Quinones are known to undergo fast electrochemical transformations which are necessary for sustaining high discharge and charge rates in a battery. The facility of electrochemical transformation is characterized by the kinetic parameter termed exchange current density. […] In general, useful quinones are highly soluble in water, chemically stable in strongly acidic/basic solutions, capable of high cell voltage of about 1 V, roundtrip efficiency >80%, and high discharge rate. By selecting a first quinone and a second quinone that are far apart in electrode potential, the cell voltage can be maximized to 1 V. Moreover, the electrode potentials can be modified favorably by substituent groups on the quinones as set forth below. Based on data provided in Table 1 and 2 (J.B. Conant and […]. Am. Chem.

[2] = cited from earlier work
[3] = Cyclic voltammetry in 1 M potassium hydroxide; assay type: physicochemical
[4] = Rotating disk electrode and cyclic voltammetry on glassy carbon, 1 mM compound in 1 M sulfuric acid; assay type: physicochemical; conditions: for Diffusion Coefficient, (cm^2 s^-1): Levich plot; for Transfer Coefficient, an: Tafel analysis; for Exchange Current Density, (A cm^-2): glassy carbon RDE; for Rate Constant, k°: obtained from exchange current density
Description: Measurement of kinetic parameters and diffusion coefficients was conducted in a three-electrode cell consisting of a rotating glassy carbon disk working electrode, a platinum wire counter electrode, and a mercury/mercuric sulfate reference electrode (E° = +0.65 V). […] The solutions were de-aerated and kept under a blanket of argon gas throughout all the experiments. All measurements were conducted in the potentiodynamic mode (Versastat 300 potentiostat) at a scan rate of 5 mV s^-1 over a range of rotation rates (500 rpm to 3000 rpm). Impedance measurements were also made at each rotation rate. Cyclic voltammetry was conducted on a static glassy carbon electrode at a scan rate of 50 mV s^-1.
(§1) Where n is the number of electrons transferred, F, the Faraday constant, A, electrode area, Do, the diffusion coefficient, v, the kinematic viscosity of the solution and C*, the bulk concentration of the reactants. For n = 2, an active electrode area of 0.1925 cm^2, and a kinematic viscosity of the electrolyte of 0.01 cm^2 s^-1, we were able to evalulate the diffusion coefficient from the slope of the straight line plots in FIG. 11D.
(§2) To determine the kinetic parameters for the charge-transfer process, namely the rate constant and the apparent transfer coeffcient, the logarithm of the kinetic current (after correction for mass-transport losses) was plotted against the observed overpotentials greater than 100 mV, where the Tafel equation is applicable (Eq. 4 and FIG. 11E).
(§3) Where I is the current, Ilim is the limiting current, Iex is the exchange current density, Co and CR are the concentration of the oxidized and reduced species at the surface of the electrode, Co* and CR* are the bulk concentrations of the oxidized and reduced species, α is the transfer coefficient, n is the number of electrons transferred, F is the Faraday constant, E-Erev is the overpotential, R is the gas constant, and T is the temperature. The rate constant, ko , was obtained from the exchange current density (Eq. 5).
as §1, with “plots.” for “plots in FIG. 11D.”
as §2, with “equation derived from the Butler-Volmer Equation” for “equation”, “: […]” for “(Eq. 4 and FIG. 11E).”
as §3, with “using the relationship” for “(Eq. 5).”

[5] = Charge/discharge cycling of full ORBAT flow cells; conditions: 25 cm^2 flow cell, 0.2 M solutions, 1 M sulfuric acid, at least 12 cycles
Excerpt: A flow cell was constructed using fuel cell hardware that has graphite end plates (Electrochem Inc.) and an electrode active area of 25 cm^2. The reactant was circulated using peristaltic pumps (Masterflex) at a flow rate of approximately 0.5-1.0 liter min^-1. Membrane electrode assemblies (MEA) needed for the cell were fabricated in house using procedures similar to those previously reported for direct methanol fuel cells. (G. K. S. Prakash, M. C. Smart, Q. J. Wang, A. Atti, V. Pleynet, B. Yang, K. McGrath, G. A. Olah, S. R. Narayanan, W. Chun, T. Valdez, S. Surampudi, J. Fluorine Chemistry, 125, 1217 (2004); the entire disclosure of which is hereby incorporated by reference). Specifically, two sheets of carbon paper (Toray 030- non-teflonized) were coated with an ink containing 0.1 g of Vulcan XC-72 carbon black and 0.3 g of NAFION®. The coated electrodes were hot pressed with a NAFION® 117 membrane to form a MEA. All full cell experiments were carried out at 23° C. Two glass containers served as reservoirs for the solutions of the redox couples. An argon flow was maintained above these solutions to avoid reaction of the redox couples with oxygen. The current-voltage characteristics of the cells were measured at various states of charge. Charge/discharge studies were carried out under constant current conditions. […]

[6] = Cyclic voltammetry in mixed solvent (DMF/water); assay type: physicochemical; conditions: DMF/water (80% DMF/20%Water for TYLENOL)
[7] = in water, 25° C; cited from earlier work
[8] = Table 5, MSE E°=+0.65 V, 1 M sulfuric acid
[9] = water, aqueous solubility limit, aqueous
[10] = Table 7, listed as Anthraquinone sulfonic acid

O=C1C=CC=CC1=O [1,2-benzoquinone (ortho), 1,2-benzoquinone]
electrode potential higher relative to 1,4-benzoquinone (para-quinone) [1]: approximately 85 mV | Electrode Potential vs. NHE, V [2]: 0.786 V

O=C1c2cccc(O)c2C(=O)c2c(O)cccc21 [1,8-dihydroxy anthraquinone, 1,8-dihydroxy anthraquinone]
reversible peak potential vs. MMO [3]: approximately -0.60 V

O=C1c2ccccc2C(=O)c2ccccc21 [9,10-anthraquinone, reference compound]
Standard Reduction Potentials: E°(formal) Measured ([4]; 1 M sulfuric acid): Insoluble | Standard Reduction Potentials: Experimental (E½ values) vs. NHE ([4]; 1 M sulfuric acid): Insoluble | Electrode Potential vs. NHE, V [2]: 0.157 V

O=C1c2ccc(S(=O)(=O)O)cc2C(=O)c2ccc(S(=O)(=O)O)cc21 [Anthraquinone 2,6-disulfonic acid, anthraquinone-2,6-disulfonic acid]
Standard Reduction Potentials: E°(formal) Measured ([4]; 1 M sulfuric acid): 0.19 | kinetic reversibility from cyclic voltammograms ([4]; 1 M sulfuric acid, glassy carbon): less kinetically reversible than AQS | Diffusion Coefficient, (cm^2 s^-1) ([4]; Table 5, 1 M sulfuric acid): 3.40E-6 cm^2 s^-1 | E½ vs. MSE, Volt [4, 8]: -0.60 Volt | Transfer Coefficient, an ([4]; Table 5): 0.426 | Exchange Current Density, (A cm^-2) ([4]; Table 5, 1 M sulfuric acid): 2.97E-6 A cm^-2 | Rate Constant, k° ([4]; Table 5): 0.000152 cm/s | Diffusion Coefficient (cm2/sec) ([4]; Table 7): 4.04E-6 cm2/sec | Exchange Current density (A/cm^2) ([4]; Table 7): 1.81E-6 A/cm^2 | E½ vs. MSE, Volt ([4]; Table 7, 1 M sulfuric acid): -0.58 Volt | Standard Reduction Potentials: Experimental (E½ values) vs. NHE ([4]; 1 M sulfuric acid): 0.05 | reversible peak potential vs. MMO [3]: about -0.35 V | charge-discharge cycling stability (capacity change) [5]: charge-discharge cycling stability similar to AQS | solubility (Solubility; Solubility, Table 5): 500 mM (≈ 184 mg/mL) | solubility (Solubility; [9]): ~500 mM (≈ 184 mg/mL)

O=C1c2ccccc2C(=O)c2cc(S(=O)(=O)O)ccc21 [Anthraquinone-2-sulfonic acid, anthraquinone-2-sulfonic acid]
Standard Reduction Potentials: E°(formal) Measured ([4]; 1 M sulfuric acid): 0.15 | Diffusion Coefficient, (cm^2 s^-1) ([4]; Table 5, 1 M sulfuric acid): 3.71E-6 cm^2 s^-1 | E½ vs. MSE, Volt [4, 8]: -0.52 Volt | Transfer Coefficient, an ([4]; Table 5): 0.677 | Exchange Current Density, (A cm^-2) ([4]; Table 5, 1 M sulfuric acid): 1.96E-5 A cm^-2 | Rate Constant, k° ([4]; Table 5): 0.000225 cm/s | Diffusion Coefficient (cm2/sec) ([4]; Table 7): 3.35E-6 cm2/sec | Exchange Current density (A/cm^2) ([4]; Table 7): 1.95E-5 A/cm^2 | E½ vs. MSE, Volt ([4]; Table 7, 1 M sulfuric acid): -0.52 Volt | Diffusion Coefficient (cm2/sec) [4, 10]: 3.18E-6 cm2/sec and 3.35E-6 cm2/sec | Exchange Current density (A/cm^2) [4, 10]: 1.95E-5 A/cm^2 and 2.91E-5 A/cm^2 | Standard Reduction Potentials: Experimental (E½ values) vs. NHE ([4]; 1 M sulfuric acid): 0.13 | reversibility of the electrochemistry [6]: reversible | solubility (Solubility; DMF/water, aqueous with cosolvent or surfactant or cyclodextrin, solubility in DMF/water): 700 mM (≈ 202 mg/mL) | solubility (Solubility; Solubility, Table 5): 200 mM (≈ 57.7 mg/mL) | solubility (Solubility; Solubility, Table 7): 200 mM (≈ 57.7 mg/mL) | solubility (Solubility; [9]): 200 mM (≈ 57.7 mg/mL)

CC(=O)Nc1ccc(O)cc1 [TYLENOL®, reference compound]
reversibility of the electrochemistry [6]: DMF does not enhance the reversibility

O=C1C(=O)C(Cl)=C(Cl)C(Cl)=C1Cl [Tetrachloro-1,2-benzoquinone]
Electrode Potential vs. NHE, V [2]: 0.823 V

O=C1C=C(S(=O)(=O)O)C=C(S(=O)(=O)O)C1=O [benzoquinone disulfonic acid]
solubility [7]: 1700 mM (≈ 456 mg/mL)

O=C1C=CC(=O)C=C1 [benzoquinone]
solubility [7]: 100 mM (≈ 10.8 mg/mL)

anthraquinone-2-sulfonic acid salt
reversible peak potential vs. MMO [3]: about -0.4 V
